In patent publication US10869931B2, “Polyethylene glycol-modified angiogenesis inhibitor HM-1 and application thereof” (NANJING ANJI BIOLOGICAL TECHNOLOGY CO.,LTD, priority 2016, dated 2020):
Marks after values point to notes of the source that are not given here. Where no end group is shown, it is not given here.

Legend:
[1] = tested on: Prostate cancer tumor cells; experiment: MTT proliferation inhibition, prostate cancer cells; type: cell-based, human; set-up: concentration or dose not given beside the values; settings: 48 h
How it was run: (§1)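 Tumour cells plated at 2×10^4 cells/mL, attached overnight, then exposed to dilutions of mPEG-HM-1 for 48 h at 37 °C, 5% CO2. MTT added 4 h, formazan dissolved in DMSO, absorbance 570/630 nm; growth inhibition = 1 − treated/untreated, three independent repeats, mean±SD.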

[2] = tested on: neovascularization in rat model of premature retinopathy; experiment: Fluctuating-oxygen rat model of premature retinopathy (endothelial nuclei count); type: in vivo; settings: vascular endothelial nuclei per slice, day 14
How it was run: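 Newborn rats were cycled between 80% and 10% oxygen every 24 h, then moved to room air for 7 days. Conjugates were given by intravitreal injection from modeling day 7 for 1 week, with saline for model and normal controls. Endothelial nuclei breaching the inner limiting membrane were counted on H&E-stained 4 μm sections and averaged per section per eyeball.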

[3] = tested on: Thyroid cancer tumor cells; experiment: MTT proliferation inhibition, thyroid cancer cells; type: cell-based, human; set-up: concentration or dose not given beside the values; settings: 48 h
How it was run: as §1

Brain tumor cells = experiment: MTT proliferation inhibition, brain tumor cells; type: cell-based, human; set-up: concentration or dose not given beside the values; settings: 48 h
How it was run: as §1

[4] = tested on: Ovarian cancer tumor cells; experiment: MTT proliferation inhibition, ovarian cancer cells; type: cell-based, human; set-up: concentration or dose not given beside the values; settings: 48 h
How it was run: as §1

[5] = tested on: xylene-induced ear swelling in Kunming mice; experiment: Xylene-induced ear swelling in mice; type: in vivo, mouse; settings: for Swelling: 2 h after xylene; for Inhibition rate: ear swelling vs control
How it was run: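 Kunming mice were dosed once daily for 5 days (aspirin 200 mg/kg as positive control, saline as blank). One hour after the last dose, xylene was applied to the right ear, with the left ear as untreated reference. Ear punches were weighed 2 h later; swelling degree = right − left weight, rate = degree/left weight ×100%.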

[6] = tested on: Head and neck cancer tumor cells; experiment: MTT proliferation inhibition, head and neck cancer cells; type: cell-based, human; set-up: concentration or dose not given beside the values; settings: 48 h
How it was run: as §1

[7] = tested on: collagen induced arthritis (CIA) in DBA/1 mice; experiment: Collagen-induced mouse arthritis (CIA) model; type: in vivo; settings: for Joint swelling / Left and right paw swelling / Clinical score: CIA DBA/1 mice; for Clinical score: maximum score 16
mouse spleen lymphocytes = experiment: ConA-stimulated mouse spleen lymphocyte proliferation (MTT); type: cell-based; settings: ConA 5 μg/mL, 48 h
How it was run: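 Proliferation read by MTT (4 h), DMSO solubilisation and OD 570 nm, 5 replicates, after 48 h culture at 37° C. Cells were erythrocyte-depleted splenocytes at 5×10^6/mL in RPMI 1640 plus 10% calf serum; groups were blank, ConA and dexamethasone 0.02 mg/mL.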

Melanoma tumor cells = experiment: MTT proliferation inhibition, melanoma cells; type: cell-based, human; set-up: concentration or dose not given beside the values; settings: 48 h
How it was run: as §1

[8] = 20 mg/kg subcutaneous from day 30 of modeling
[9] = 40 mg/kg subcutaneous from day 30 of modeling
[10] = 160 mg/kg once daily for 5 days
[11] = 80 mg/kg subcutaneous from day 30 of modeling

| Substance | rate of growth inhibition [1] | rate of growth inhibition [3] | rate of growth inhibition (Brain tumor cells) | rate of growth inhibition [4] | Swelling ([5]; 20 mg/kg once daily for 5 days) | Inhibition rate ([5]; 20 mg/kg once daily for 5 days) | Swelling ([5]; 40 mg/kg once daily for 5 days) | Inhibition rate ([5]; 40 mg/kg once daily for 5 days) | rate of growth inhibition [6] | A570 nm/A630 nm (mouse spleen lymphocytes; 20 μg/mL) | Inhibition Rate of spleen lymphocyte proliferation (mouse spleen lymphocytes; 20 μg/mL) | A570 nm/A630 nm (mouse spleen lymphocytes; 40 μg/mL) | Inhibition Rate of spleen lymphocyte proliferation (mouse spleen lymphocytes; 40 μg/mL) | rate of growth inhibition (Melanoma tumor cells) | Swelling ([5]; 80 mg/kg once daily for 5 days) | Inhibition rate ([5]; 80 mg/kg once daily for 5 days) | A570 nm/A630 nm (mouse spleen lymphocytes; 80 μg/mL) | Inhibition Rate of spleen lymphocyte proliferation (mouse spleen lymphocytes; 80 μg/mL) | other results |
| --- | --- | --- | --- | --- | --- | --- | --- | --- | --- | --- | --- | --- | --- | --- | --- | --- | --- | --- | --- |
| mPEG-bALD10k-Arg-Gly-Ala-Asp-Arg-Ala-Gly-Gly-Gly-Gly-Arg-Gly-Asp ({mPEG‑bALD 10 kDa}-RGADRAGGGGRGD) [mPEG-bALD10k-HM-1] | 50.02 ± 10.65% | 55.74 ± 13.13% | 59.37 ± 14.52% | 80.35 ± 20.53% | 4.64 ± 0.72* mg | 23.63% | 3.59 ± 0.35** mg | 40.88% | 49.01 ± 12.14% | 0.5469 ± 0.1122 | 21.18% | 0.4666 ± 0.1040 | 32.75% | 82.33 ± 20.08% |  |  |  |  | Cell nuclei count ([2]; 50 μg intravitreal for 1 week from day 7): 7.627 ± 1.892; Swelling ([5]; 10 mg/kg once daily for 5 days): 5.37 ± 0.14 mg; Inhibition rate ([5]; 10 mg/kg once daily for 5 days): 11.54%; Joint swelling [7, 8]: 0.74 ± 0.12 mm; Left and right paw swelling [7, 8]: 0.71 ± 0.12 mm; Clinical score [7, 8]: 8.69 ± 1.38; limbs score (in words) ([7]; CIA mice, subcutaneous, once every three days, vs model control group): significantly lower than that of the model control group; A570 nm/A630 nm (mouse spleen lymphocytes; 10 μg/mL): 0.6179 ± 0.1049; Inhibition Rate of spleen lymphocyte proliferation (mouse spleen lymphocytes; 10 μg/mL): 10.94% |
| mPEG-bALD20k-Arg-Gly-Ala-Asp-Arg-Ala-Gly-Gly-Gly-Gly-Arg-Gly-Asp ({mPEG‑bALD 20 kDa}-RGADRAGGGGRGD) [mPEG-bALD20k-HM-1] | 46.90 ± 11.54% | 49.38 ± 13.20% | 54.77 ± 13.43% | 75.65 ± 20.09% | 5.03 ± 0.18 mg | 17.13% | 4.64 ± 0.34* mg | 23.62% | 45.13 ± 12.38% | 0.6104 ± 0.1005 | 12.02% | 0.4988 ± 0.1173 | 28.10% | 80.75 ± 22.94% | 3.78 ± 0.27** mg | 37.76% | 0.4453 ± 0.1054 | 35.82% | Cell nuclei count ([2]; 100 μg intravitreal for 1 week from day 7): 7.158 ± 1.724; Joint swelling [7, 9]: 0.73 ± 0.15 mm; Left and right paw swelling [7, 9]: 0.75 ± 0.11 mm; Clinical score [7, 9]: 8.67 ± 1.32 |
| mPEG-bALD40k-Arg-Gly-Ala-Asp-Arg-Ala-Gly-Gly-Gly-Gly-Arg-Gly-Asp ({mPEG‑bALD 40 kDa}-RGADRAGGGGRGD) [mPEG-bALD40k-HM-1] | 40.82 ± 11.75% | 45.53 ± 12.98% | 51.89 ± 11.91% | 72.66 ± 19.03% |  |  | 5.25 ± 0.12 mg | 13.45% | 40.09 ± 12.02% |  |  | 0.6191 ± 0.0986 | 10.77% | 73.10 ± 20.55% | 4.68 ± 0.72* mg | 22.94% | 0.5089 ± 0.1230 | 26.65% | Cell nuclei count ([2]; 200 μg intravitreal for 1 week from day 7): 8.539 ± 2.218; Swelling [5, 10]: 4.06 ± 0.26** mg; Inhibition rate [5, 10]: 33.09%; Joint swelling [7, 11]: 0.78 ± 0.16 mm; Left and right paw swelling [7, 11]: 0.79 ± 0.13 mm; Clinical score [7, 11]: 9.01 ± 1.45; A570 nm/A630 nm (mouse spleen lymphocytes; 160 μg/mL): 0.4848 ± 0.1146; Inhibition Rate of spleen lymphocyte proliferation (mouse spleen lymphocytes; 160 μg/mL): 30.12% |
